Assay [1] deals with Staphylococcus aureus. In words: Antimicrobial activity against 2 MCF vancomycin-intermediate Staphylococcus aureus isolate JKD6008 by Etest method.
In assay [2] the test system is Staphylococcus aureus. In words: Antimicrobial activity against 2 mCF Staphylococcus aureus isolate JKD6208 harboring graS T136I mutant gene by Etest method.
Assay [3] has as its system Staphylococcus aureus. The experiment in a line: Antimicrobial activity against 2 MCF graRS-deficient Staphylococcus aureus isolate JKD6196 by Etest method.
The subject of assay [4] is Staphylococcus aureus. In words: Antimicrobial activity against 2 MCF graRS-deficient Staphylococcus aureus isolate JKD6205 harboring pCu1 plasmid by Etest method.
Assay [5] deals with Staphylococcus aureus. The experiment in a line: Antimicrobial activity against 2 MCF graRS-deficient Staphylococcus aureus isolate JKD6206 harboring plasmid JKD6151 by Etest method.

Data on 1 compound can be found in ChEMBL document CHEMBL1275507, “Genomic analysis reveals a point mutation in the two-component sensor gene graS that leads to intermediate vancomycin resistance in clinical Staphylococcus aureus” (2008).

In brackets after ≈: the same amount, converted by molar mass.

For the compound `CN[C@H](CC(C)C)C(=O)N[C@H]1C(=O)N[C@@H](CC(N)=O)C(=O)N[C@H]2C(=O)N[C@H]3C(=O)N[C@H](C(=O)N[C@H](C(=O)O)c4cc(O)cc(O)c4-c4cc3ccc4O)[C@H](O)c3ccc(c(Cl)c3)Oc3cc2cc(c3O[C@@H]2O[C@H](CO)[C@@H](O)[C@H](O)[C@H]2O[C@H]2C[C@](C)(N)[C@H](O)[C@H](C)O2)Oc2ccc(cc2Cl)[C@H]1O` [VANCOMYCIN], the MIC with Staphylococcus aureus [1] was 8 µg/mL (≈ 5.52 µM); against Staphylococcus aureus [2] it was 6 µg/mL (≈ 4.14 µM); in the assay on Staphylococcus aureus [3], 1.5 µg/mL (≈ 1.04 µM); against Staphylococcus aureus [4] it was 1.5 µg/mL (≈ 1.04 µM); in the assay with Staphylococcus aureus [5] it was 3 µg/mL (≈ 2.07 µM).
